Experimental data as given in patent US8828987B2, “Pyridine amide derivatives as EP4 receptor antagonists” (Rottapharm Biotech S.R.L., priority 2010, dated 2014).

Legend:
human EP4 receptor [1] = target: T1, human EP4 receptor (Homo sapiens, UniProt P35408); assay: cAMP assay (AlphaScreen) on human EP4 membrane of transfected cells, antagonism of PGE2; assay type: biochemical; conditions: HEK293 hEP4 cell membrane stimulated with PGE2 3 nM; read-out: functional IC50
T1 construct: expressed in transfected cells; membrane fraction used
Source text: (§1) Stable Expression of Human EP4 Receptors in the Human Embryonic Kidney (HEK293) Cell Line
(§2) The cDNA clone of human EP4 receptor (NM_000958.2) was obtained from Invitrogen™: Ultimate™ ORF Clone Collection—Clone ID IOH46525. The coding sequence was subcloned in expression vector pcDNA™6.2/V5-DEST by Gateway technology (Invitrogen™).
(§3) Human embryonic kidney cells (HEK-293) were stably transfected with expression vector for human EP4 receptor in according to the method described in FuGENE®6 Transfection Reagent's manual (Roche Applied Science®).
(§4) Preparation of Membrane Fraction:
(§5) The EP4 transfected cells were grown in Dulbecco's modified Eagle's medium containing 10% fetal bovine serum and 10 μg/ml Blasticidin S HCl (selection medium) at 37° C. in a humidified atmosphere of 5% CO2 in air.
(§6) For the membrane preparation, cells in flask were harvested by hypotonical/mechanical lysis with chilled (4° C.) TE buffer (5 mM TRIS, 5 mM etylenediamine tetra-acetic acid (EDTA), pH 7.4).
(§7) Cells were detached and lysed with 10 ml of hypotonic lysis buffer and by scraping. The cell lysate was vortexed for 30 sec and centrifuged at 40000×g at 4° C. for 22 min.
b) cAMP Assay on Human EP4 Membrane of Transfected Cells.
The assay is based on the competition between endogenous cAMP and exogenously added biotinylated cAMP. The capture of cAMP is achieved by using a specific antibody conjugated to […] beads.
Cell membranes prepared as described above, were resuspended in 1 ml stimulation buffer (HBSS 1×+BSA 0.1%+IBMX 0.5 mM+HEPES 5 mM+MgCl2 10 mM+GTP 1 nM+GDP 10 μM+ATP 100 μM−pH 7.4). Cell membranes were dispensed into white 384-well microplates at final concentration of 1 μg/well and used for the determination of cAMP with the alphascreen cAMP functional assay (EnVision—PerkinElmer). Cell membrane/anti-cAMP Acceptor beads mix (5 μl) and a mixture of analysed compounds (dissolved in 100% DMSO to a final maximal concentration of 0.01% DMSO)/PGE2 (5 μl) were incubated at room temperature (22-23° C.) for 30 min in the dark. The Biotinylated-cAMP and donor beads (15 μl) were dispensed into each well to start the competition reaction. After 1 h incubation RT (22-23° C.) in the dark the plate was read using EnVision platform to determine the cAMP level (excitation: 680 nm; emission: 520,620 nm).
cAMP standard curve (concentration range from 1×10-6 to 1×10-11 M in. log intervals) with a negative control (no cAMP) a positive control:forskolin 10 μM
Antagonism studies were performed stimulating HEK293 cell membrane with PGE2 3 nM. The AlphaScreen signal is plotted as a function of log concentration of cAMP and functional IC50 is determined. IC50 value is calculated by linear regression.
Some compounds were tested according to method of example 83b.

human EP4 receptor [2] = target: T1, human EP4 receptor; assay: [3H]-Prostaglandin E2 membrane binding assay (human EP4/HEK293 transfectant membranes); conditions: [3H]-PGE2 1 nM, hEP4/HEK293 membranes; Ki by Cheng-Prusoff; read-out: Binding pKi (converted)
Source text: as §1, §2, §3, §4, §5, §6, §7
a) Membrane Binding Assay[3H]-Prostaglandin E2
The membrane pellet was resuspended in the same buffer (5 mM TRIS, 5 mM ethylenediamine tetra-acetic acid (EDTA), pH 7.4), and protein concentration was determined by Bradford method (Bio-Bad® assay).
This membrane preparation was stored at −80° C. freezer until use for binding assay.
([^3H]-PGE2) membranes binding assays toward hEP4 receptors (human EP4/HEK293 transfectant, see above) and hEP2 receptors (human EP2/HEK293 transfectant, purchased from PerkinElmer Inc) were performed in 10 mM MES-KOH buffer pH6, containing 10 mM MgCl2 and 1 mM CaCl2 for EP4 binding assay or 50 mM Tris-Cl, BSA 0.5% for EP2 binding assay (according to supplier indication).
Ten microgram of protein from membrane fractions were incubated in a total volume of 0.1 ml (EP4) or 0.2 ml (EP2) with 1 nM (EP4) or 3 nM (EP2) [^3H]-PGE2 (PerkinElmer Inc, 171 Ci/mmol). In both assays to determine the total binding or non specific binding, 1% DMSO or 1 μM prostaglandin E2 (EP4) or 100 μM (EP2) were added to reaction mixtures, respectively. Incubation was conducted in a polypropylene 96 multiwell for 90 min (EP4) or 60 min (EP2) at room temperature prior to separation of the bound and free radioligand by vacuum manifold rapid filtration on glass fiber filters (Unifilter GFB96, PerkinElmer Inc) pre-soaked in 0.3% polyethyleneimine. Filters were washed with ice cold buffer pH 7.4 (50 mM HEPES, NaCl 500 mM, BSA 0.1% for EP4 binding assay or 50 mM Tris-Cl for EP2 binding assays) and the residual [^3H]-PGE2 binding determined by solid scintillation counter (TopCount, PerkinElmer Inc).
The affinity (Ki) of each compound was calculated according to the Cheng-Prousoff equation: Ki=IC50/(1+([C]/Kd)). Results were expressed as pKi (−log 10 Ki (M)
Compounds of example 1 to 82 were tested according to method of example 83a in a final concentration range from 1 nM to 1 μM.

T1 sequence (P35408 whole entry): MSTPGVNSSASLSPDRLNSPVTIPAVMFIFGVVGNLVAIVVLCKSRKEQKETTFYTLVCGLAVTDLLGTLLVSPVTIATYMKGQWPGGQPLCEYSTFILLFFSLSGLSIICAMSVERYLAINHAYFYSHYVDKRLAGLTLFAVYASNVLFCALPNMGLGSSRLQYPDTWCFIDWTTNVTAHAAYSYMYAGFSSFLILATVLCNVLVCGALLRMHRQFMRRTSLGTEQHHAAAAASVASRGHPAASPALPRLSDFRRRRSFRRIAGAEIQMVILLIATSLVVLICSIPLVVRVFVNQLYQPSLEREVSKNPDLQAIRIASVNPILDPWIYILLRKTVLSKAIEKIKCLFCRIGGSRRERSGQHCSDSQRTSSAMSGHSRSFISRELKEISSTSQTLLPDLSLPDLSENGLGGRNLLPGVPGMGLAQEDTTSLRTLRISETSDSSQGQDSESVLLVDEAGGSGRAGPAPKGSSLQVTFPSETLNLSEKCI

IC50 (human EP4 receptor [1]) [nM] | Ki (human EP4 receptor [2]) [nM] | SMILES
235 | 398 | O=C(O)c1ccc(C2(NC(=O)c3cc(Cl)cnc3N3CCCC3c3ccccc3)CC2)cc1 (single isomer, unassigned) [E 1, 4-(1-(5-chloro-2-(2-phenylpyrrolidin-1-yl)nicotinamido)cyclopropyl)benzoic acid]
133 | 31.6 | O=C(O)c1ccc(C2(NC(=O)c3cc(Cl)cnc3N3CCCC3c3ccccc3)CC2)cc1 (single isomer, unassigned) [E 3, 4-(1-(5-chloro-2-(2-phenylpyrrolidin-1-yl)nicotinamido)cyclopropyl)benzoic acid]
102 | 200 | O=C(O)c1ccc(C2(NC(=O)c3cc(Cl)cnc3N3CCC(c4ccccc4)C3)CC2)cc1 (single isomer, unassigned) [E 4, 4-(1-(5-chloro-2-(3-phenylpyrrolidin-1-yl)nicotinamido)cyclopropyl)benzoic acid]
96.5 | 79.4 | O=C(O)c1ccc(C2(NC(=O)c3cc(Cl)cnc3N3CCC(Oc4ccccc4)C3)CC2)cc1 (single isomer, unassigned) [E 60]
46 | 25.1 | O=C(O)c1ccc(C2(NC(=O)c3cc(Cl)cnc3N3CCC(Oc4ccccc4)C3)CC2)cc1 (single isomer, unassigned) [E 62]
145 | 31.6 | O=C(O)c1ccc(C2(NC(=O)c3cc(Cl)cnc3N3CCC(Oc4cccc(C(F)(F)F)c4)C3)CC2)cc1 (single isomer, unassigned) [E 63, 4-(1-(5-chloro-2-(3-(3-(trifluoromethyl)phenoxy)pyrrolidin-1-yl)nicotinamido)cyclopropyl)benzoic acid]
99 | 31.6 | O=C(O)c1ccc(C2(NC(=O)c3cc(Cl)cnc3N3CCC(Oc4cccc(C(F)(F)F)c4)C3)CC2)cc1 (single isomer, unassigned) [E 64, 4-(1-(5-chloro-2-(3-(3-(trifluoromethyl)phenoxy)pyrrolidin-1-yl)nicotinamido)cyclopropyl)benzoic acid]
65 | 39.8 | O=C(O)c1ccc(C2(NC(=O)c3cc(Cl)cnc3N3CCC(Oc4cccc(C(F)(F)F)c4)C3)CC2)cc1 (single isomer, unassigned) [E 65, 4-(1-(5-chloro-2-(3-(3-(trifluoromethyl)phenoxy)pyrrolidin-1-yl)nicotinamido)cyclopropyl)benzoic acid]
43 | 39.8 | O=C(O)c1ccc(C2(NC(=O)c3cc(Cl)cnc3N3CCC(Oc4ccc(F)cc4)C3)CC2)cc1 (single isomer, unassigned) [E 66, 4-(1-(5-chloro-2-(3-(4-fluorophenoxy)pyrrolidin-1-yl)nicotinamido)cyclopropyl)benzoic acid]
66 | 31.6 | O=C(O)c1ccc(C2(NC(=O)c3cc(Cl)cnc3N3CCC(Oc4ccc(F)cc4)C3)CC2)cc1 (single isomer, unassigned) [E 68, 4-(1-(5-chloro-2-(3-(4-fluorophenoxy)pyrrolidin-1-yl)nicotinamido)cyclopropyl)benzoic acid]
308 | 50.1 | O=C(O)c1ccc(C2(NC(=O)c3cc(Cl)cnc3N3CCC(Oc4cccc(F)c4)C3)CC2)cc1 (single isomer, unassigned) [E 69, 4-(1-(5-chloro-2-(3-(3-fluorophenoxy)pyrrolidin-1-yl)nicotinamido)cyclopropyl)benzoic acid]
110 | 39.8 | O=C(O)c1ccc(C2(NC(=O)c3cc(Cl)cnc3N3CCC(Oc4cccc(F)c4)C3)CC2)cc1 (single isomer, unassigned) [E 71, 4-(1-(5-chloro-2-(3-(3-fluorophenoxy)pyrrolidin-1-yl)nicotinamido)cyclopropyl)benzoic acid]
386 | 100 | C[C@H](NC(=O)c1cc(Cl)cnc1N1CC(Oc2ccc(F)cc2)C1)c1ccc(C(=O)O)cc1 [E 11, (S)-4-(1-(5-chloro-2-(3-(4-fluorophenoxy)azetidin-1-yl)nicotinamido)ethyl)benzoic acid]
102 | 15.8 | C[C@H](NC(=O)c1cc(Cl)cnc1N1CC(Oc2cccc(F)c2)C1)c1ccc(C(=O)O)cc1 [E 12, (S)-4-(1-(5-chloro-2-(3-(3-fluorophenoxy)azetidin-1-yl)nicotinamido)ethyl)benzoic acid]
187 | 25.1 | O=C(O)c1ccc(C2(NC(=O)c3cc(Cl)cnc3N3CC(Oc4ccc(C(F)(F)F)cc4)C3)CC2)cc1 [E 13, 4-(1-(5-chloro-2-(3-(4-(trifluoromethyl)phenoxy)azetidin-1-yl)nicotinamido)cyclopropyl)benzoic acid]
38 | 5.01 | O=C(O)c1ccc(C2(NC(=O)c3cc(Cl)cnc3N3CC(Oc4cccc(C(F)(F)F)c4)C3)CC2)cc1 [E 14, 4-(1-(5-chloro-2-(3-(3-(trifluoromethyl)phenoxy)azetidin-1-yl)nicotinamido)cyclopropyl)benzoic acid]
70 | 12.6 | O=C(O)c1ccc(C2(NC(=O)c3cc(Cl)cnc3N3CC(Oc4ccc(F)cc4)C3)CC2)cc1 [E 15, 4-(1-(5-chloro-2-(3-(4-fluorophenoxy)azetidin-1-yl)nicotinamido)cyclopropyl)benzoic acid]
82 | 20 | O=C(O)c1ccc(C2(NC(=O)c3cc(Cl)cnc3N3CC(Oc4ccc(F)c(C(F)(F)F)c4)C3)CC2)cc1 [E 17, 4-(1-(5-chloro-2-(3-(4-fluoro-3-(trifluoromethyl)phenoxy)azetidin-1-yl)nicotinamido)cyclopropyl)benzoic acid]
22 | 12.6 | O=C(O)c1ccc(C2(NC(=O)c3cc(Cl)cnc3N3CC(Oc4cccc(OC(F)(F)F)c4)C3)CC2)cc1 [E 18, 4-(1-(5-chloro-2-(3-(3-(trifluoromethoxy)phenoxy)azetidin-1-yl)nicotinamido)cyclopropyl)benzoic acid]
87 | 50.1 | O=C(O)c1ccc(C2(NC(=O)c3cc(Cl)cnc3N3CC(Oc4ccc(F)cc4F)C3)CC2)cc1 [E 19, 4-(1-(5-chloro-2-(3-(2,4-difluorophenoxy)azetidin-1-yl)nicotinamido)cyclopropyl)benzoic acid]
70 | 10 | O=C(O)c1ccc(C2(NC(=O)c3cc(Cl)cnc3N3CC(Oc4ccc(F)c(F)c4)C3)CC2)cc1 [E 20, 4-(1-(5-chloro-2-(3-(3,4-difluorophenoxy)azetidin-1-yl)nicotinamido)cyclopropyl)benzoic acid]
